From patent publication US8551489B2, “Methods for the treatment of cancers” (MUSC Foundation for Research Development, priority 2008, dated 2013)
Entries after “also recorded” stand apart in the source; their conditions may differ. Like-named read-outs stand apart in the source and are kept apart here. Blank lines part the entries; values can stand above or below the compound they belong to.

Key:
T24 cells [1] = assay: Western blot of FAK and ERK phosphorylation in T24 cells; assay type: cell-based, human; conditions: serum starved 12 hrs, treated 1 hr
Description: FIG. 6. Effect of TP receptor agonist (U46619) and antagonist (PTXA2) treatment on phosphorylation of FAK and ERK. T24 cells were serum starved for 12 hrs then treated with PTXA2 or U46619 for 1 hr. Tyrosine phosphorylation of FAK was assessed with western blot analysis on […] of cell lysate using anti-FAK pY397 (BD Bioscience) and pERK using a pERK specific antibody.
(§1) Tumor and normal bladder tissues were snap-frozen in liquid nitrogen within 30 minutes after the surgery. Frozen sections were stained with hematoxylin and eosin and samples identified that had at least 70% tumor cells were selected for further studies. Pulverized tissue powders were lysed in RIPA buffer (150 mM NaCl, 50 mM Tris-HCl [pH 8.0], 1% Triton X100, 0.1% SDS, 1% deoxycholate and protease inhibitor cocktail [Complete Protease Inhibitors, Roche]) for 15 minutes on ice. Equal amounts of total protein (40 μg) were resolved by 12% SDS-PAGE and subjected to Western blot analyses using ECL system (Amersham-Pharmacia). Screening Western blots for TP-α and TP-β isoform expression in bladder cancer cell lines was done using rabbit polyclonal antibodies against TP-α or TP-β (described above). SVHUC cells stably transfected with TP-α or TP-β plasmids were screened for PCNA, tubulin, GAPDH, FAK, pFAK, ERK, pERK protein (Santa Cruz) and ICAM-1 (Abcam).

SV-HUC cells = assay: Western blot of FAK and ERK phosphorylation in SV-HUC cells; assay type: cell-based, human; conditions: SV-HUC cells (TP-α expressor), not transfected
Description: as §1

TP-β = biological target: T1, TP-β (Homo sapiens, UniProt P21731); assay: Phosphorylation of ERK and FAK in SV-HUC cells transfected with TP-β; assay type: cell-based
T1 construct: expressed in transfected cells
Description: (§2) FIG. 7. Effects of U46619 and PTXA2 on phosphorylation of ERK and FAK. SV-HUC cells transfected with pcDNA3, TP-α or TP-β data are representative of 3 experiments.
as §1
SV-HUC cells were grown to 80% confluence and transfected with 2 μg of pcDNA3 vector encoding either the TP-α or TP-β receptor isoforms. Transfection was performed in 6-well plates using the Fugene reagent (Roche) according to the manufacturer's instructions. After 72 hours post-transfection, cells were selected with 500 μg/ml G418 (Roche) and stable pools isolated after 14 days.

PTN mRNA = PTN mRNA expression after receptor antagonist / agonist; assay type: cell-based
Source text: (§3) FIGS. 14A-F. TP-β regulation of pleiotrophin (PTN). […] (FIG. 14D) PTN mRNA reduction after PTXA2 treatment. The PTN mRNA levels are restored following the co-treatment with U46619. (FIG. 14E) shRNAi mediated knockdown of β-arrestin-2 reduced agonist dependent increase in PTN mRNA in HT-1376 cells (PTEN:wt), and UM-UC-3 cells (PTEN:minus). (FIG. 14F) Effect of U46619 on JNK1/2 and FOXO3a phosphorylation.

T24 cells [2] = assay: Sensitivity of T24 cells to cisplatin with TP receptor antagonists; assay type: cell-based, human
Description: SV-HUC and T24 cells were seeded at 5,000 cells per well in 96-well plates, and then treated with either compound or vehicle (ethanol) alone. The number of viable cells were quantified at the indicated time points, using the MTT (3-(4,5-Dimethyl-2-thiazolyl)-2,5-diphenyl-2H-tetrazolium bromide thiazole blue) assay, performed in quadruplicate, according to the manufacturer's instructions (Sigma-Aldrich). Optical density (OD) was measured at wavelength of 550 nm with reference wavelength of 690 nm.
Cell viability was analyzed under the microscope at 200× using trypan blue staining. Flow cytometric measurements of apoptosis were as follows. After 12 hours treatment with solvent control or TP receptor antagonists, cells were washed twice in ice cold phosphate buffered saline (PBS) and resuspended in binding buffer (10 mM HEPES, 140 mM NaCl, 2.5 mM CaCl2), at 1×10^6 cells in a 400 μl volume of binding buffer, in duplicate. Cells were incubated with 10 μl of human annexin V-phycoerythrin (PE) (BD Bioscience Inc.) for 15 min at room temperature in dark. […] The TUNEL assay was performed following the protocol of the TUNEL kit's manufacturer (Roche Diagnostics).

tumor cell = assay: Combination with paclitaxel in vitro, tumor cell death; assay type: cell-based; conditions: antagonist added to paclitaxel in vitro
bladder cancer cells = assay: Migration and invasion assays; assay type: cell-based, human
Description: Cell migration experiments were carried out using 8-μm pore size migration chambers (Falcon, Becton Dickinson) precoated at 4° C. overnight with fibronectin (Becton Dickinson) at a concentration of 5 μg per square centimeter in PBS. The following day, the fibronectin solution was aspirated and the migration chambers were rinsed one time with water and allowed to air dry prior to the migration experiment. Cell invasion experiments were carried out using re-hydrated 8-μm pore size invasion chambers precoated with Matrigel (Becton Dickinson). Cells at 80% confluence were trypsinized, harvested, and counted. For each condition, cells were seeded at 25,000 cells/well (T24) or 100,000 cells/well (SV-HUC) in 500 μl serum free media, then added to each migration and invasion chamber. Medium (750 μl) containing 10% serum was used as a chemoattractant in the lower chamber. Both upper and lower chambers contained the indicated compound. Cells were allowed to migrate for eight hours or invade for 24 hours at 37° C. in the presence of 5% CO2. […] Migrating and invading cells in 10 high power fields in each chamber were counted and the mean cell number was calculated. Each experiment was conducted in triplicate and repeated three times.

TP-α = biological target: T2, TP-α (Homo sapiens, UniProt P21731); assay: Phosphorylation of ERK and FAK in SV-HUC cells transfected with TP-α or pcDNA3; assay type: cell-based
T2 construct: expressed in transfected cells
T2 sequence (P21731 1-343): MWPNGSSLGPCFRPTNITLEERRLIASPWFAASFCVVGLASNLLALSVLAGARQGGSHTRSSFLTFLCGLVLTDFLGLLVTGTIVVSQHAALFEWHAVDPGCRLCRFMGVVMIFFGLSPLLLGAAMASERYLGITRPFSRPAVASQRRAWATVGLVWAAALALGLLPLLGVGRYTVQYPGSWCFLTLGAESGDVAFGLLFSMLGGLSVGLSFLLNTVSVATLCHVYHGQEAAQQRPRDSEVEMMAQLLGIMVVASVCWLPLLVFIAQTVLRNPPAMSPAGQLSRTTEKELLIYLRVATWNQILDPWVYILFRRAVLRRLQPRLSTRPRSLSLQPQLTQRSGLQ
Description: as §2, §1
SV-HUC cells were grown to 80% confluence and transfected with 2 μg of pcDNA3 vector encoding either the TP-α or TP-β receptor isoforms. Transfection was performed in 6-well plates using the Fugene reagent (Roche) according to the manufacturer's instructions. […]

JNK1/2 and FOXO3a = assay: Effect of U46619 on JNK1/2 and FOXO3a; assay type: cell-based; conditions: agonist stimulation
Source text: as §3

TP-β and PTEN = biological target: T3, TP-β and PTEN (Homo sapiens, UniProt P21731); assay: TP-β / PTEN co-immunoprecipitation and immunofluorescence; assay type: cell-based
T3 construct: endogenous in cells; host or cells: HT-1376 bladder cancer cells
Description: FIGS. 13A-D. TP-β receptor localization and interaction with PTEN. (FIG. 13A) Co-immunoprecipitation followed by Western blot analysis. Immunoprecipitation with TP-α or TP-β specific antibodies was performed using extracts prepared from HT-1376 cells. […] Extracts prepared from solvent or agonist treated cells were immunoprecipitated with TP-β specific antibody. […] After TP-β stimulation with the U46619, PTEN translocated from the cytoplasm to the nuclear membrane. (FIG. 13D) PTEN lipid phosphatase activity was diminished in SV-HUC cells transfected with TP-β compared to those transfected with TP-α.

[3] = tested on: TCC-SUP human bladder cancer xenografts; assay: Xenograft mouse model, subcutaneous TCC-SUP in nu/nu mice; assay type: in vivo
Description: FIGS. 9A-B. TP receptor antagonist inhibits bladder cancer tumor growth. (FIG. 9A) Anti-tumor effects of GR32191 and cisplatin treatment in immunocompromised mice. Subcutaneous TCC-SUP human bladder cancer xenografts in nude mice were treated with vehicle control (12 mice), GR32191 (15 mice), 5 mg/kg cisplatin (cisplatin high) (12 mice), 5 mg/kg cisplatin in combination with GR32191 (13 mice), or 0.5 mg/kg (single low dose cisplatin) alone (10 mice) or 0.5 mg/kg cisplatin in combination with GR32191 (10 mice). Tumor size was measured over time. Kaplan-Meier curves showing time to tumor onset across the treatment groups. (FIG. 9B) Pathological evaluation of tumors derived from mice treated with GR32191 (n=15) and vehicle control mice (n=12). Representative images of CD31 staining, TUNEL, staining, PCNA staining, and H&E staining are shown. Graphs on the left indicate the quantitative analysis for each of these markers. Five fields from 5 independent tumors (total 25) were counted and scored blindly. Statistically significant (p<0.05) differences compared to vehicle alone were indicated (++p<0.001 or +p<0.05).
Antigen retrieval was done by heating in a microwave oven for 5 min on high power in 10 mM citrate, pH 6.0. Sections were washed and nonspecific binding was blocked with 10% horse serum in Tris-buffered saline (TBS) (50 mM Tris-HCl, 0.9% NaCl, pH 8.0) for 20 min, then incubated overnight at 4° C. with the TP isoform-specific primary antibodies at a 1:200 dilution in the blocking solution, anti-CD31 antibody (DAKO) was used at dilution 1:25. After overnight incubation at 4° C. followed by three 10-min washes in TBS. Immpress™ horse anti-rabbit secondary was incubated (Vector Laboratories, Burlingame, Calif.) for 45 min at room temperature. Slides were counterstained with hematoxylin. PCNA staining was done utilizing mouse monoclonal antibody against human PCNA (SantaCruz) at dilution 1:200. For TUNEL staining, sections were stained using the Situ Cell Death Detection Kit (Roche Applied Science).
TCC-SUP human bladder cancer cells or SV-HUC cells stably transfected with pcDNA3, TP-α or TP-β were used in a subcutaneous model in immunocompromised (nu/nu) mice. TCC-SUP cells (5×10^6 in PBS) or SV-HUC cells (5×10^7 in Matrigel™, BD Bioscience Inc.) were injected s.c. into the right and left flanks of anesthetized mice. Tumor growth was monitored in these mice twice a week. For mice injected with TCC-SUP, GR32191 or vehicle control was administered daily (20 mg/kg) by gavage with treatment initiated 24 hrs after initial injection. Two cycles of cisplatin (single high dose (5 mg/kg) or single low dose (0.5 mg/kg)) were administrated at day 4 and day 11 post tumor cell injection.
Kaplan-Meier survival curves were constructed for overall mouse survival for two groups with and without over-expressed TP-β receptor protein. ANOVA was used to analyze the in vitro drug treatments and drug combination data. Data are presented as the mean±SD. For all statistical tests, a two-sided p-value<0.05 was used to reject the null hypothesis. Kaplan-Meier curves were used to describe time to tumor onset in each mouse group, and a Cox proportional hazards model was used to estimate and test for differences across treatment groups. Hazard ratios and their 95% confidence intervals were to describe rates of tumor onset and p-values used to compare tumor onset across groups. The proportional hazards assumption was tested using Schoenfeld residuals. Differences in tumor growth were assessed by comparing the slopes of tumor growth across groups based on a linear longitudinal two-stage analysis where slopes were estimated in stage 1 and compared across mice in stage 2. Linear regression coefficients were evaluated using Wald tests. Statistical analyses were performed using R statistical software and utilized the survival library.

[4] = healthy individuals, patients with asthma or cardiovascular diseases, cited from earlier work
[5] = vehicle treated mice compared to GR32191 treated mice

T1 sequence (P21731 1-407 isoform P21731-2): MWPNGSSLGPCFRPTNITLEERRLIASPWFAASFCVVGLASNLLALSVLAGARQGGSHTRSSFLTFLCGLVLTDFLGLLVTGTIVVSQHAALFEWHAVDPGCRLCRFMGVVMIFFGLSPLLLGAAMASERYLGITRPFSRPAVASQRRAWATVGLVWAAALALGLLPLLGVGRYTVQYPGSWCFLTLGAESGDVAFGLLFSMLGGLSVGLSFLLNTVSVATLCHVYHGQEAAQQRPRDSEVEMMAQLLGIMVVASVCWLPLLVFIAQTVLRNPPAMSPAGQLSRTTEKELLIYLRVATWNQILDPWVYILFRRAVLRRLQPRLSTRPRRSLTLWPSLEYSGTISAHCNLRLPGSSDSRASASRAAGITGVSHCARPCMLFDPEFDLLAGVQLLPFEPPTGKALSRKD
T3 sequence (P21731 1-407 isoform P21731-2): as above
T3 sequence (P60484 2-403 partner limits assumed): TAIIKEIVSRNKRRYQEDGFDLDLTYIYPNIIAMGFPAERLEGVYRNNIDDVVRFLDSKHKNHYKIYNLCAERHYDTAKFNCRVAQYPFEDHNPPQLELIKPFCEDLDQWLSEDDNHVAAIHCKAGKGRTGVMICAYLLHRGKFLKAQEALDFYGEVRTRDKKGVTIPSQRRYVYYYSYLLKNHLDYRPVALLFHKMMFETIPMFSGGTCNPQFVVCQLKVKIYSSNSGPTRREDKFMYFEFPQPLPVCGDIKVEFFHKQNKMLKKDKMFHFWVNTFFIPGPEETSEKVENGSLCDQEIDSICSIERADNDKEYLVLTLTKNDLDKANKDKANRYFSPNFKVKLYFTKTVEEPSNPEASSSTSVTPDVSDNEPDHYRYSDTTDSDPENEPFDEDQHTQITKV

SMILES: CCCCC[C@@H](O)/C=C/[C@H]1C[C@H]2C[C@@H]([C@@H]1C/C=C\CCCC(=O)O)C2(C)C [PTXA2]
phospho-ERK and phospho-FAK levels (T24 cells [1]): reduction in the elevated basal levels; also recorded: significantly reduced
phospho-ERK and phospho-FAK levels (SV-HUC cells): no effect
U46619-stimulated increase in pERK1/2 and pFAK (TP-β; SV-HUC cells transfected with TP-β, antagonist added): blocked
basal levels of pFAK and pERK (TP-β; TP-β transfected SV-HUC cells, data not shown): decreased the basal levels
PTN mRNA expression (PTN mRNA; incubation with receptor antagonist): reduced PTN mRNA expression

SMILES: O=C(O)CCC/C=C\C[C@@H]1[C@H](CNNC(=O)Nc2ccccc2)[C@H]2CC[C@@H]1O2 [SQ29548]
sensitivity to cisplatin (T24 cells [2]): enhanced sensitivity to cisplatin
tumor cell death (tumor cell): synergistically increased tumor cell death

phosphorylation of FAK and ERK on agonist stimulation (TP-α): failed to stimulate
PTN expression (PTN mRNA; co-incubation of agonist with PTXA2): restored
localization of TP-β and PTEN proteins (TP-β and PTEN; immunofluorescence, in the presence of agonist): translocated to the nuclear membrane
SMILES: CCCCC[C@H](O)/C=C/[C@@H]1[C@@H](C/C=C\CCCC(=O)O)[C@H]2CO[C@@H]1C2 [U46619]
cell migration (bladder cancer cells; T-24 cells, transwell migration assay, 1 μM U46619 for 12 hours): increase in migration
phospho-ERK and phospho-FAK levels (T24 cells [1]): significantly increased; also recorded: increased phosphorylation
phosphorylation of FAK and ERK on agonist stimulation (TP-β; SV-HUC cells transfected with TP-β): stimulated pERK1/2 and pFAK; also recorded: stimulated the phosphorylation of FAK and ERK
JNK1/2 activation (JNK1/2 and FOXO3a): induced JNK1/2 activation
expression of the transcription factor FOXO3a (JNK1/2 and FOXO3a): reduced the expression
association between TP-β and PTEN (TP-β and PTEN; immunoprecipitation with TP-β specific antibody, agonist versus solvent treated cells): Increased association between TP-β and PTEN

SMILES: O=C(O)CC/C=C\CC[C@@H]1[C@@H](N2CCCCC2)[C@@H](O)C[C@@H]1OCc1ccc(-c2ccccc2)cc1 [GR32191]
inhibition of cell migration and invasion (bladder cancer cells; complementary studies, data not shown): 65%
time of tumor free mice ([3]; 20 mg/kg daily by gavage): significantly (P<0.04) extended
tumor growth ([3]; 20 mg/kg daily by gavage, monitored over time): significantly inhibited
detection of palpable tumors / time of tumor onset ([3]; 20 mg/kg daily by gavage, started 24 hrs after cell injection): delayed
survival ([3]; GR32191 alone): prolonged survival
survival ([3]; GR32191 in combination with cisplatin): prolonged survival
apoptosis, TUNEL staining ([3]; GR32191 treated compared to vehicle treated mice, p<0.05): significant increase in apoptosis
microvessel density (MVD), CD31 staining ([3]; vehicle control compared to mice treated with GR32191): significantly higher (p<0.05) microvessel density
cell proliferation, PCNA staining [3, 5]: significantly increased (p<0.05) cell proliferation
percentage of undifferentiated tumors, H&E staining [3, 5]: significantly higher percentage (p<0.01) of undifferentiated tumors
sensitivity to cisplatin (T24 cells [2]): enhanced sensitivity to cisplatin
tumor cell death (tumor cell): synergistically increased tumor cell death
safety in clinical studies [4]: shown to be safe
safety in clinical studies ([4]; listed as GR): excellent safety profile
